Test results taken from the NIST ThermoML archive (doi:10.1016/j.jct.2012.11.014).
± gives the expanded uncertainty stated by the source.

Assay: xn = mol fraction of the nth substance listed
Conditions: 101 kPa, Liquid; for speed of sound: Frequency=2 MHz, Linear variable-path acoustic interferometer; for viscosity: Oscillating disk viscometry; for mass density: Vibrating tube method

C[NH+](C)C.O=S(=O)([O-])O [trimethylammonium hydrogen sulfate] + C[S+](C)[O-]
Conditions | mass density [kg/m3] | speed of sound [m/s] | viscosity [mPa·s]
298.15 K, x1 = 0.013 | 1102.89 ± 1 | 1498 ± 3 | 2.07 ± 0.13
298.15 K, x1 = 0.0356 | 1115.76 ± 1 | 1499 ± 3 | 2.23 ± 0.14
298.15 K, x1 = 0.0539 | 1125.92 ± 1.1 | 1501 ± 3 | 2.36 ± 0.15
298.15 K, x1 = 0.0982 | 1149.81 ± 1.1 | 1504 ± 3 | 2.62 ± 0.16
298.15 K, x1 = 0.1259 | 1164.24 ± 1.1 | 1507 ± 3 | 2.75 ± 0.17
298.15 K, x1 = 0.1608 | 1181.78 ± 1.1 | 1511 ± 3 | 2.91 ± 0.18
298.15 K, x1 = 0.1982 | 1199.92 ± 1.1 | 1514 ± 3 | 3.09 ± 0.19
298.15 K, x1 = 0.2422 | 1220.26 ± 1.1 | 1519 ± 3 | 3.3 ± 0.21
298.15 K, x1 = 0.2956 | 1243.91 ± 1.1 | 1522 ± 3 | 3.52 ± 0.22
298.15 K, x1 = 0.3855 | 1281.02 ± 1.1 | 1528 ± 3 | 3.84 ± 0.24
298.15 K, x1 = 0.4611 | 1309.82 ± 1.1 | 1533 ± 3 | 4.07 ± 0.26
298.15 K, x1 = 0.545 | 1339.48 ± 1.1 | 1536 ± 3 | 4.3 ± 0.27
298.15 K, x1 = 0.6387 | 1370.13 ± 1.1 | 1542 ± 3 | 4.51 ± 0.29
298.15 K, x1 = 0.7076 | 1391.08 ± 1.1 | 1546 ± 3 | 4.64 ± 0.3
298.15 K, x1 = 0.7823 | 1412.52 ± 1.1 | 1548 ± 3 | 4.78 ± 0.31
298.15 K, x1 = 0.8444 | 1429.25 ± 1.1 | 1552 ± 3 | 4.86 ± 0.31
298.15 K, x1 = 0.907 | 1445.39 ± 1.1 | 1556 ± 3 | 4.95 ± 0.32
298.15 K, x1 = 0.9524 | 1456.38 ± 1.1 | 1559 ± 3 | 5.02 ± 0.32
298.15 K, x1 = 1 | 1467.58 ± 1.2 | 1564 ± 3 | 5.1 ± 0.33
303.15 K, x1 = 0.013 | 1099.96 ± 1 | 1475 ± 3 | 1.89 ± 0.12
303.15 K, x1 = 0.0356 | 1112.84 ± 1 | 1477 ± 3 | 2.03 ± 0.13
303.15 K, x1 = 0.0539 | 1122.95 ± 1.1 | 1479 ± 3 | 2.15 ± 0.13
303.15 K, x1 = 0.0982 | 1146.81 ± 1.1 | 1485 ± 3 | 2.39 ± 0.15
303.15 K, x1 = 0.1259 | 1161.18 ± 1.1 | 1488 ± 3 | 2.54 ± 0.16
303.15 K, x1 = 0.1608 | 1178.69 ± 1.1 | 1492 ± 3 | 2.69 ± 0.17
303.15 K, x1 = 0.1982 | 1196.87 ± 1.1 | 1496 ± 3 | 2.85 ± 0.18
303.15 K, x1 = 0.2422 | 1217.02 ± 1.1 | 1501 ± 3 | 3.02 ± 0.19
303.15 K, x1 = 0.2956 | 1240.65 ± 1.1 | 1506 ± 3 | 3.22 ± 0.2
303.15 K, x1 = 0.3855 | 1277.68 ± 1.1 | 1514 ± 3 | 3.51 ± 0.22
303.15 K, x1 = 0.4611 | 1306.38 ± 1.1 | 1522 ± 3 | 3.71 ± 0.23
303.15 K, x1 = 0.545 | 1336.01 ± 1.1 | 1528 ± 3 | 3.88 ± 0.25
303.15 K, x1 = 0.6387 | 1366.49 ± 1.1 | 1532 ± 3 | 4.05 ± 0.26
303.15 K, x1 = 0.7076 | 1387.36 ± 1.1 | 1538 ± 3 | 4.15 ± 0.27
303.15 K, x1 = 0.7823 | 1408.73 ± 1.1 | 1540 ± 3 | 4.26 ± 0.27
303.15 K, x1 = 0.8444 | 1425.42 ± 1.1 | 1545 ± 3 | 4.32 ± 0.28
303.15 K, x1 = 0.907 | 1441.51 ± 1.1 | 1551 ± 3 | 4.38 ± 0.28
303.15 K, x1 = 0.9524 | 1452.45 ± 1.1 | 1556 ± 3 | 4.43 ± 0.29
303.15 K, x1 = 1 | 1463.57 ± 1.2 | 1560 ± 3 | 4.48 ± 0.29
308.15 K, x1 = 0.013 | 1093.72 ± 1 | 1462 ± 3 | 1.75 ± 0.11
308.15 K, x1 = 0.0356 | 1106.81 ± 1 | 1466 ± 3 | 1.88 ± 0.12
308.15 K, x1 = 0.0539 | 1116.99 ± 1.1 | 1469 ± 3 | 1.99 ± 0.12
308.15 K, x1 = 0.0982 | 1141.18 ± 1.1 | 1476 ± 3 | 2.23 ± 0.14
308.15 K, x1 = 0.1259 | 1155.67 ± 1.1 | 1478 ± 3 | 2.35 ± 0.15
308.15 K, x1 = 0.1608 | 1173.53 ± 1.1 | 1484 ± 3 | 2.51 ± 0.16
308.15 K, x1 = 0.1982 | 1191.94 ± 1.1 | 1490 ± 3 | 2.67 ± 0.17
308.15 K, x1 = 0.2422 | 1212.56 ± 1.1 | 1494 ± 3 | 2.82 ± 0.18
308.15 K, x1 = 0.2956 | 1236.49 ± 1.1 | 1500 ± 3 | 3 ± 0.19
308.15 K, x1 = 0.3855 | 1274.01 ± 1.1 | 1510 ± 3 | 3.24 ± 0.21
308.15 K, x1 = 0.4611 | 1303.22 ± 1.1 | 1516 ± 3 | 3.41 ± 0.22
308.15 K, x1 = 0.545 | 1333.32 ± 1.1 | 1524 ± 3 | 3.54 ± 0.23
308.15 K, x1 = 0.6387 | 1364.4 ± 1.1 | 1530 ± 3 | 3.68 ± 0.24
308.15 K, x1 = 0.7076 | 1385.63 ± 1.1 | 1534 ± 3 | 3.73 ± 0.25
308.15 K, x1 = 0.7823 | 1407.49 ± 1.1 | 1538 ± 3 | 3.81 ± 0.25
308.15 K, x1 = 0.8444 | 1424.52 ± 1.1 | 1544 ± 3 | 3.85 ± 0.26
308.15 K, x1 = 0.907 | 1440.98 ± 1.1 | 1547 ± 3 | 3.88 ± 0.26
308.15 K, x1 = 0.9524 | 1452.15 ± 1.1 | 1552 ± 3 | 3.92 ± 0.27
308.15 K, x1 = 1 | 1463.5 ± 1.2 | 1556 ± 3 | 3.94 ± 0.27
313.15 K, x1 = 0.013 | 1089.1 ± 1 | 1447 ± 3 | 1.64 ± 0.1
313.15 K, x1 = 0.0356 | 1102.07 ± 1 | 1449 ± 3 | 1.75 ± 0.11
313.15 K, x1 = 0.0539 | 1112.21 ± 1 | 1452 ± 3 | 1.85 ± 0.12
313.15 K, x1 = 0.0982 | 1136.31 ± 1.1 | 1460 ± 3 | 2.06 ± 0.13
313.15 K, x1 = 0.1259 | 1150.73 ± 1.1 | 1464 ± 3 | 2.17 ± 0.14
313.15 K, x1 = 0.1608 | 1168.35 ± 1.1 | 1471 ± 3 | 2.31 ± 0.15
313.15 K, x1 = 0.1982 | 1186.62 ± 1.1 | 1476 ± 3 | 2.45 ± 0.16
313.15 K, x1 = 0.2422 | 1207.12 ± 1.1 | 1483 ± 3 | 2.56 ± 0.16
313.15 K, x1 = 0.2956 | 1230.97 ± 1.1 | 1490 ± 3 | 2.7 ± 0.17
313.15 K, x1 = 0.3855 | 1268.16 ± 1.1 | 1501 ± 3 | 2.88 ± 0.19
313.15 K, x1 = 0.4611 | 1297.1 ± 1.1 | 1510 ± 3 | 3 ± 0.2
313.15 K, x1 = 0.545 | 1326.92 ± 1.1 | 1516 ± 3 | 3.08 ± 0.21
313.15 K, x1 = 0.6387 | 1357.69 ± 1.1 | 1525 ± 3 | 3.14 ± 0.22
313.15 K, x1 = 0.7076 | 1378.66 ± 1.1 | 1530 ± 3 | 3.16 ± 0.22
313.15 K, x1 = 0.7823 | 1400.24 ± 1.1 | 1536 ± 3 | 3.18 ± 0.23
313.15 K, x1 = 0.8444 | 1417.09 ± 1.1 | 1540 ± 3 | 3.18 ± 0.23
313.15 K, x1 = 0.907 | 1433.37 ± 1.1 | 1545 ± 3 | 3.18 ± 0.24
313.15 K, x1 = 0.9524 | 1444.43 ± 1.1 | 1549 ± 3 | 3.17 ± 0.24
313.15 K, x1 = 1 | 1455.63 ± 1.2 | 1552 ± 3 | 3.16 ± 0.25
